Data as given in patent publication US9004162B2, “Methods of stimulating acetoclastic methanogenesis in subterranean deposits of carbonaceous material” (Transworld Technologies Inc., priority 2012, dated 2015).

Test system: microorganism consortium in the subterranean formation
Protocol: Field tests were conducted on a mature coal-bed methane natural gas well in the Powder River Basin region in Wyoming. […] Total injection volume was 975,450 gallons of formation water, as well as 575.7 lbs. of sodium acetate trihydrate and 2404.7 lbs. of anhydrous sodium acetate. The effective average concentration of acetate in the injection water was 4.06 mM. In the pretreatment period, well 23M-2283 was used to access a microorganism consortium in the subterranean formation and obtain samples for microorganism population analysis.

## CC(=O)[O-].[Na+] [acetate amendment, sodium acetate]
After acetate amendment introduced in situ (effective average 4.06 mM acetate in injection water), pretreatment 4.2×10^4 cells/ml
  total microbial population density: 1.5×10^6 cells/ml
At some points during natural gas recovery operations following the two-week period
  acetoclastic methanogens as share of total archaea population: ~100%
Two weeks after introduction of the amendment, pretreatment ~20%
  acetoclastic methanogens as share of total archaea: greater than 90%
Two weeks after introduction of the amendment, pretreatment ~80%
  hydrogenotrophic methanogens as share of total archaea: less than 10%
